The results in this text go back to US20120214846A1, “HEXAHYDROCYCLOPENTYL[F]INDAZOLE PYRIDYL ETHANOLS AND DERIVATIVES THEREOF AS SELECTIVE GLUCOCORTICOID RECEPTOR MODULATORS” (MERCK SHARP & DOHME CORP, priority 2009, published 2012).

For orientation: Emax means the size of the effect at its maximum, as opposed to the concentration needed.

Like-named read-outs stand apart in the source and are kept apart here.

Series [1] concerns female Sprague-Dawley rats, oxazolone (OX) contact dermatitis. In words: In Vivo Inflammation Assay (oxazolone contact dermatitis model). Also noted: key to Inflammation Assay Glucose Effect / GL *: +: the glucose level increased compared to vehicle; −: the glucose level decreased compared to vehicle. As to conditions: for GL *: glucose effect; for Inflammation Assay Glucose Effect / Inflammation Assay Anti-inflammatory Effect: rat; for Inflammation Assay Glucose Effect: glucose level compared to vehicle; for Inflammation Assay Anti-inflammatory Effect: relative to control compound. How it is done: In Vivo Inflammation Assay
Intact adult (6 month old) female Sprague-Dawley rats are used in the oxazolone (OX) contactdermatitis model. Rats were sensitized on the ventral abdomen with OX on Day 0. On Days 7 and 9, a randomly-selected ear was challenged (same ear each time) with OX; the other was treated with vehicle. Daily treatment begun on Day 7 and continued for 7d with test compounds at different doses and 1.3 mpk 6-methlyprednisolone or 0.1 mpk DEX as positive controls. The thickness of both ears are measured on Days 11 and 14. Necropsy occurred on Day 14. The rat is first weighed, then anesthetized in a CO2 chamber until near death. Approximately 5 ml whole blood is obtained by cardiac puncture. The rat is then examined for certain signs of death and completeness. Tissues are dissected in a highly stylized fashion. Then the following endpoints were evaluated: a) inhibiting ear inflammation induced by oxazalone, b) raising serum insulin, c) reducing serum ACTH, d) reducing spleen weight, e) reducing skin thickness, f) reducing body weight, g) increasing expression of bone-related genes with potential relationship to negative glucocorticoid effects on bone; e) changes in molecular markers that correlate with skin inflammation, skin thinning, muscle atrophy and glucose metabolism in liver. All blood samples were collected between 1330-1530 hours, ˜4-5 hrs after the last compound treatment.
Primary data for this assay are left and right ear thickness. Inter-ear thickness difference (etd) is used for the estimating the level of inflammation and effectiveness of the compounds is determined by their ability to reduce the increase the thickness of the inflamed ear. Back of the rat skin thickness, spleen weight, serum insulin as well as the effects of gcs on the expression of molecular markers in skin inflammation, skin atrophy, muscle atrophy and glucose metabolism in liver are measured. Data are analyzed by anova plus fisher plsd post-hoc test to identify intergroup differences.

A further series concerns the target T1, GR (Homo sapiens, UniProt P04150).
T1 sequence (P04150 1-777): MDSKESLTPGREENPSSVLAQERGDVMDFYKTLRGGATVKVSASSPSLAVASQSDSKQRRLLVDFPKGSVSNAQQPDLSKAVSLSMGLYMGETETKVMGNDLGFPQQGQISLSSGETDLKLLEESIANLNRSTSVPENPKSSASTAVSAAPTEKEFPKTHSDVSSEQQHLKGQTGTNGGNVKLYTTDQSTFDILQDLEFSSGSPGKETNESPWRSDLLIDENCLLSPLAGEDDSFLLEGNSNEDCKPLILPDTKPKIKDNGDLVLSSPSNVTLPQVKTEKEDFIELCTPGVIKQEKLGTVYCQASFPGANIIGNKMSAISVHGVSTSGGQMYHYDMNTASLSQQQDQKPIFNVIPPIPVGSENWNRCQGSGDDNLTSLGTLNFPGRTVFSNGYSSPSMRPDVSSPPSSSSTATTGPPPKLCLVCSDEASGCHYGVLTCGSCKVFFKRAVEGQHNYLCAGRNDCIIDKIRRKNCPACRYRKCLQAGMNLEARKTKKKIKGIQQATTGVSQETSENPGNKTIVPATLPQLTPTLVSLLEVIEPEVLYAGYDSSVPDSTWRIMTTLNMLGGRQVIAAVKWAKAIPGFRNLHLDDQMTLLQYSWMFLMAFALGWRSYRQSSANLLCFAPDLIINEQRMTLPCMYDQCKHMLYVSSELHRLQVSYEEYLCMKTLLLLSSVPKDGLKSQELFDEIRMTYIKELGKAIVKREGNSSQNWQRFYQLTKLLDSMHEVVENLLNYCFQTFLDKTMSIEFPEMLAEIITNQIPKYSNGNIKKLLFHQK
The experiment in a line: Trans-Activation Modulation of Glucocorticoid Receptor Assay (GRAMMER), MMTV-LUC reporter, A549 cells. Format: cell-based. The arrangement: endogenous in cells. An excerpt: Trans-Activation Modulation of Glucocorticoid Receptor Assay
This assay assesses the ability of test compounds to control transcription from the MMTV-LUC reporter gene in lung adenocarcinoma A549 cells or HeLa cells, a human […] cell line that naturally expresses the human GR. The assay measures induction of a modified MMTV LTR/promoter linked to the LUC reporter gene.
The routine transient assay consists of plating 7,000-25,000 cells/well of a white, clear-bottom 96-well plate. Alternatively, 384-well plates can be used at a cell concentration of 10,000/well. The media that the cells are plated in is “exponential growth medium” which consists of phenol red-free RPMI1640 containing 10% FBS, 4 mM L-glutamine, 20 mM HEPES, 10 ug/mL human insulin, and 20 ug/mL gentamicin. Incubator conditions are 37° C. and 5% CO2. The transfection is done in batch mode. The cells are trypsinized and counted to the right cell number in the proper amount of fresh media. It is then gently mixed with the FuGene6/DNA mix and plated onto the 96 or 384-well plate, all the wells receive 100 uL or 40 uL, respectively, of medium+lipid/DNA complex then incubated 37° C. overnight. The transfection cocktail consists of serum-free OptiMEM, FuGene6 reagent and DNA. The manufacturer's (Roche Biochemical) protocol for cocktail setup is as follows: The lipid to DNA ratio is approximately 2.5:1 and the incubation time is 20 min at room temperature. Sixteen to 24 hours after transfection, the cells are treated with dexamethasone to a final concentration of 10 nM as well as the compound of interest, such that final DMSO (vehicle) concentration is equal to or less than 1%. Each plate also contains samples that are treated with 10 nM dexamethasone alone, which is used as the 100% activity control. The cells are exposed to the compounds for 24 hours. After 24 hours, the cells are lysed by a Promega cell culture lysis buffer for approximately 30 min and then the luciferase activity in the extracts is assayed in the 96-well format luminometer. In 384-well format, Steady-Glo (Promega) or Steady-Lite (PerkinElmer) can be used by adding an equal volume of reagent to the media present in each well. […] Antagonist activity is calculated by determining the decrease in dexamethasone-induced activity in response to compound treatment relative to samples that were treated with dexamethasone alone. […] This transactivation assay can be performed in an agonist and antagonist mode to identify these different activities.
The action of compounds is also tested in an antagonist mode (Anti-GRAMMER) in which the cells are treated with medium containing an agonist such as 10 nM DEX and the ability to agents to inhibit the activation by an agonist is measured.

[2] abbreviates: A549, Table 4, literature compounds, read-out: GRAMMER EMAX.
[3] abbreviates: Table 4, literature compounds, read-out: GRAMMER IP.
Where [4] appears, read: A549, A549 cells, relative to 300 nM dexamethasone, read-out: Transactivation A549 Cells GRAMMER Emax.
[5] abbreviates: A549 cells, inflection point, read-out: Transactivation A549 Cells GRAMMER IP.

As to `C[C@]12Cc3cnn(-c4ccc(F)cc4)c3C=C1CCC[C@@H]2[C@@H](O)c1ccccc1` [Ex. 35 WO 03/86294 A2, reference compound], in series [1] (Table 4, literature compounds), the “GL *” value is on record as “−”. Moreover, the Emax at GR (setting [2]) was found to be 40.2%. The EC50 at GR (setting [3]) was 195 nM.

With `CO[C@@]1(CCc2ccccc2Cl)CCC2=Cc3c(cnn3-c3ccc(F)cc3)C[C@@]21C` [Ex. 103 WO 04/075840 A2, reference compound], in series [1] (Table 4, literature compounds, anti-inflammatory effect), the “AI*” value is “+ (the anti-inflammatory activity was equal to or greater than 40% of the effect generated by the control compound)”. Also, in series [1] (Table 4, literature compounds), the “GL *” value is recorded as “+”. On GR (setting [2]), the Emax turned out to be 115%. Further, at GR (setting [3]), the EC50 turned out to be 162 nM.

As to `COc1ccnc(C(O)C[C@]2(O)CCC3=Cc4c(cnn4-c4ccc(F)cc4)C[C@@]32C)c1` (stereo partly drawn) [Example 3, (4αS,5R)-1-(4-fluorophenyl)-5-[2-hydroxy-2-(4-methoxypyridin-2-yl)ethyl]-4α-methyl-1,4,4α,5,6,7-hexahydrocyclopenta[f]indazol-5-ol], in series [1], the “Inflammation Assay Glucose Effect” value is “+” and the “Inflammation Assay Anti-inflammatory Effect” value is given as “+ (the anti-inflammatory activity was equal to or greater than 40% of the effect generated by the control compound)”. In addition, the Emax on GR (setting [4]) stood at 21.6%. Besides, the EC50 on GR (setting [5]) is 132 nM.

For `C[C@]12Cc3cnn(-c4ccc(F)cc4)c3C=C1CC[C@@]2(O)CC(O)c1cc(C#N)ccn1` (stereo partly drawn) [Example 9, 2-{2-[(4αS,5R)-1-(4-fluorophenyl)-5-hydroxy-4α-methyl-1,4,4α,5,6,7-hexahydrocyclopenta[f]indazol-5-yl]-1-hydroxyethyl}pyridine-4-carbonitrile], in series [1], the “Inflammation Assay Glucose Effect” value was “+” and the “Inflammation Assay Anti-inflammatory Effect” value is given as “+ (the anti-inflammatory activity was equal to or greater than 40% of the effect generated by the control compound)”. For the same compound, the Emax at GR (setting [4]) turned out to be 27.4%. The EC50 at GR (setting [5]) was 160 nM.

With `Cc1ccnc(C(O)C[C@]2(O)CCC3=Cc4c(cnn4-c4ccc(F)cc4)C[C@@]32C)c1` (stereo partly drawn) [Example 11, (4αS,5R)-1-(4-fluorophenyl)-5-[2-hydroxy-2-(4-methylpyridin-2-yl)ethyl]-4α-methyl-1,4,4α,5,6,7-hexahydrocyclopenta[f]indazol-5-ol], in series [1], the “Inflammation Assay Glucose Effect” value is on record as “+” and the “Inflammation Assay Anti-inflammatory Effect” value is listed as “+ (the anti-inflammatory activity was equal to or greater than 40% of the effect generated by the control compound)”. Further, the Emax on GR (setting [4]) amounted to 27.7%. Also, the EC50 on GR (setting [5]) is 162 nM.
